What was measured:
CD-1 mice = assay: Formalin test in mice; type: in vivo; settings: AM251 0.5 mg/kg i.p. or AM630 1 mg/kg i.p., 10 min before Δ^9-THCB 3 mg/kg i.p.
Experimental: Formalin test in mice. Male CD-1 mice 6-8 weeks (Envigo, Italy), were housed under controlled conditions (12 h light/12 h dark cycle; temperature 20-22 C; humidity 55-60%) with chow and tap water available ad libitum. All surgeries and experimental procedures were approved by the Animal Ethics Committee of University of Campania “L. Vanvitelli” (Naples). Animal care was in compliance with Italian (D.L. 116/92) and European Commission (O.J. of E.C. L358/1 18/12/86) regulations on the protection of laboratory animals. All efforts were made to minimize animal suffering and to reduce the number of animals used. All the experiments were performed in a randomized manner by the same operator blind to pharmacological treatments. Mice weighing 28-32 g were used after 1 week-acclimation period and received formalin (1.25% in saline, 30 μL) in the dorsal surface of one side of the hind-paw. Each mouse, randomly assigned to one of the experimental groups (n=5), was placed in a plexiglass cage and allowed to move freely for 15-20 min. A mirror was placed at a 45° angle under the cage to allow full view of the hind-paws. Lifting, favoring, licking, shaking and flinching of the injected paw were recorded as nocifensive behavior.^61 The total time of the nociceptive response was measured every 5 min for 60 minutes and expressed in min (mean±SEM). Mice received vehicle (0.5% DMSO in saline) or different doses of Δ^9-THCB (2, 3 and 5 mg/kg, i.p.) 20 min before formalin injection alone or in combination with AM251 (0.5 mg/kg, i.p.) or AM630 (1 mg/kg, i.p.). The antagonists were administered 10 min before drugs injection.
Statistics for in vivo experiments. Data are represented as means±standard error of the mean (S.E.M). Statistical analysis of the data was performed by analysis of variance two-way ANOVA followed by Bonferroni post hoc or Dunnett's multiple comparison test. All statistical analyses were performed by using GraphPAD software (San Diego, California). Differences were considered significant at p<0.05.

human CB1 receptor = target: T1, human CB1 receptor (Homo sapiens, UniProt P21554); settings: literature values used for comparison; read-out: Ki against CB1 receptor reported in the literature; cited from earlier work
T1 construct: Eurofins Discovery (contract assay)

human CB2 receptor = target: T2, human CB2 receptor (Homo sapiens, UniProt P34972); settings: cited from earlier work
T2 construct: Eurofins Discovery (contract assay)
T2 sequence (P34972 whole entry): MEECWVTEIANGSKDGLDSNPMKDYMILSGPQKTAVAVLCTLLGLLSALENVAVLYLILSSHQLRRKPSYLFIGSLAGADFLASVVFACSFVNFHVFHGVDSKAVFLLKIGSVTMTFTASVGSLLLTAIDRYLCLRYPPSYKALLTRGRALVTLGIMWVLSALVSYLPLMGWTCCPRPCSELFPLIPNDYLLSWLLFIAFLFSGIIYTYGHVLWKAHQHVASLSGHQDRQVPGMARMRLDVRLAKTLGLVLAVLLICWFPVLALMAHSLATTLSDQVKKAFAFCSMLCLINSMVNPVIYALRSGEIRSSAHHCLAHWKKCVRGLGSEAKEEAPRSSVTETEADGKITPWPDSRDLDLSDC

T1 sequence (P21554 whole entry): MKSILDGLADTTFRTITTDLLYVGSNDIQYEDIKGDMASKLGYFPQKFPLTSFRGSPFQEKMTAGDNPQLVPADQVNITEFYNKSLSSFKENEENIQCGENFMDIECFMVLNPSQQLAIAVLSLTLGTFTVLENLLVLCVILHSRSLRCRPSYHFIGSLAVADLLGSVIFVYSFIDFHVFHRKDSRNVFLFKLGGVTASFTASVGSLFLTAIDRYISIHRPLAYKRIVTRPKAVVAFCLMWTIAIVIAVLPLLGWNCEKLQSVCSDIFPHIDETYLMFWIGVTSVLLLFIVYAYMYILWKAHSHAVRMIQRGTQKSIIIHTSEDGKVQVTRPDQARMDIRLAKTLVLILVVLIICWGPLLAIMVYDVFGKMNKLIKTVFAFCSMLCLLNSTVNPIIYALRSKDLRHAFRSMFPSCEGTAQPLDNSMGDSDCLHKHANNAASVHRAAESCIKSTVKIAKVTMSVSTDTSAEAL

Structure (SMILES)	effect of antagonist pre-treatment on Δ^9-THCB analgesia in formalin test (CD-1 mice)	Ki (human CB1 receptor)	further results
COc1ccc(C(=O)c2c(C)n(CCN3CCOCC3)c3cc(I)ccc23)cc1 [AM630]	prevented the analgesic effects induced by Δ^9-THCB	–	–
CC1=CC[C@@H]2[C@@H](C1)c1c(O)cc(C(C)(C)CCCCCCBr)cc1OC2(C)C [AM11542]	–	0.11 nM	–
C=C(C)[C@@H]1CCC(C)=C[C@H]1c1c(O)cc(CCCCC)cc1O [CBD, cannabidiol]	–	–	affinity to CB2 receptor (in words, literature) (human CB2 receptor): poor affinity
CCCc1cc(O)c2c(c1)OC(C)(C)[C@@H]1CCC(C)=C[C@@H]21 [Δ^9-THCV, Δ^9-tetrahydrocannabivarin]	–	75.4 nM	–
Cc1c(C(=O)NN2CCCCC2)nn(-c2ccc(Cl)cc2Cl)c1-c1ccc(I)cc1 [AM251]	prevented the analgesic effects induced by Δ^9-THCB	–	–

Reference: patent US12606508B2, “Cannabis extracts and uses thereof” (priority 2020, dated 2026)
